Test results published in patent US20090227619A1, “Harmine derivatives, intermediates used in their preparations, preparation processes and use therefo” (priority 2003, published 2009).
Read-outs that look alike come from different tables or passages of the source.

Key:
CT-DNA [1] = experiment: DNA thermal denaturation, determination of ΔTm; format: binding; settings: 20 uM compound, Tm of CT-DNA alone 61° C.
Outline: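 CT-DNA at 15 ug/ml in PE buffer (1 mM Na2HPO4, 0.1 mM EDTA, pH 7.6), heated at 0.5° C./min from 25 to 95° C. Tm taken as hyperchromic transition mid-point; ΔTm = Tm of drug-DNA complex minus Tm of DNA alone, mean of three runs.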

Kunming mice = settings: for Death rate: single i.p.
Experimental: (§2) Five grades of dosages for each sample according to the results of the preliminary test, each dosage being 0.8 larger than the previous one
(§3) During the experiment, each sample was added a small amount of Tween-80 to facilitate dissolution after the sample was weighed, and then 0.5% CMC-Na solution was gradually added to achieve the desired concentration. The experimental volume was 0.5 ml/20 g mouse.
(§4) Single injection via intraperitoneal (i.p.) to different groups mice.
(§5) Kunming mice were divided into different groups randomly according to their sex. The medicament was intraperitoneally administered to each group of mice according to the dosage setting. After the administration of the medicaments, mice were observed continuously for the first 2 h for any gross behavioral changes and deaths. Dead animals were dissected and examined for any possible organ damage. […] Conditions of animals died within two week were recorded. After two weeks, all survived animals were sacrificed and checked macroscopically for possible damage to the heart, liver, kidneys and so on. Viscera that had substantive pathological changes were pathologically examined.

S180 sarcoma = settings: S180 sarcoma; for Body weight of the animals, beginning, First time / Body weight of the animals, end, First time / Inhibition rate, First time / Weight of the tumor X ± SD, First time / Body weight of the animals, beginning, Second time / Body weight of the animals, end, Second time / Inhibition rate, Second time: ip × 10qd; for Inhibition rate (%) S180 sarcomata: comparison table 43, in vivo
Excerpt: There was one group of 8 to 10 mice C57BL/6 and Kunming mice for the anti-tumor tests and two groups of mice for negative control.
(3) Sources of tumors: Lewis lung cancer cells and S180 sarcoma in mice, which were sub-cultured and maintained by Pharmacological Center of Shanghai Pharmaceutical Industrial Research Institute.
All samples were weighed and added a small amount of Tween-80 to facilitate dissolution during the experiment, and then 0.5% CMC-Na solution was gradually added to achieve the desired concentration. The volume for experiment was 0.5 ml/20 g mouse.
The medicaments were intraperitoneally administered once a day continuously for 10 days.
For the negative control group, a vehicle of the same volume was intraperitoneally administered once a day continuously for 10 days. For the positive control group, CTX was administered in the dosage of 30 mg/kg once a day continuously for 7 days.
In vivo anti-tumor subcutaneous vaccination in the axilla was employed. Wildly grown tumor source was taken under sterile conditions to form a cell suspension of about 1×10^7 ml by homogenization method. For a corresponding mouse host, the suspension was injected in the axilla in an amount of 0.2 ml/mouse. The next day, the medicaments were administered according to the design of the tests. About three weeks later, all the groups of animals were executed. The tumors were taken from the animals and weighed. The inhibition rate of tumors was calculated according to the following formula:
T: average tumor weight of treated group; C: average tumor weight of negative control group.

BGC-823 = experiment: In vitro cytotoxicity, IC50 by MTT method, BGC-823; format: cell-based; settings: Homo sapiens, BGC-823; BGC823 cell strain; read-out: IC50 BGC823
Outline: (§1)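 Cells in RPMI1640 with 10% FBS at 37° C, 5% CO2 were seeded at 10^5/ml and exposed to a compound concentration gradient for 48 h, at least three replicates, solvent controls.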

PLA-801 = experiment: In vitro cytotoxicity, IC50 by MTT method, PLA-801; format: cell-based; settings: PLA-801 cell strain; read-out: IC50 PLA-801
Outline: as §1

NIH3T3 = experiment: In vitro cytotoxicity, IC50 by MTT method, NIH3T3; format: cell-based; settings: Mus musculus; NIH3T3 cell strain; read-out: IC50 NIH3T3
Outline: as §1

Hela = experiment: In vitro cytotoxicity, IC50 by MTT method, Hela; format: cell-based; settings: Homo sapiens; Hela cell strain; read-out: IC50 Hela
Outline: as §1

HepG2 = experiment: In vitro cytotoxicity, IC50 by MTT method, HepG2; format: cell-based, human; settings: Homo sapiens; HepG2 cell strain; read-out: IC50 HepG2
Outline: as §1

Lovo = experiment: In vitro cytotoxicity, IC50 by MTT method, Lovo; format: cell-based; settings: Homo sapiens; Lovo cell strain; read-out: IC50 Lovo
Outline: as §1

Lewis lung cancer = settings: Lewis lung cancer; for Body weight of the animals, end, First time / Body weight of the animals, end, Second time: ip × 10qd; for Inhibition rate (%) Lewis cancer: comparison table 43, in vivo;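 as to all read-outs here: mice implanted subcutaneously in the axilla with Lewis lung tumor cells, treated starting the following day, killed roughly three weeks after implantation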
Bel-7402 = experiment: In vitro cytotoxicity, IC50 by MTT method, Bel-7402; format: cell-based; settings: Homo sapiens, Bel-7402; Bel7402 cell strain; read-out: IC50 Bel7402
Outline: as §1

in vivo = settings: both, mouse, ip
Experimental: as §2, §3, §4, §5

CT-DNA [2] = experiment: UV absorption spectrum method with CT-DNA; format: binding; settings: CT-DNA 40 ug/ml, compound 20 uM, 37° C. for 2 h, OD at 260 nm
Experimental: Compounds to be tested (20 uM) were added into the PE buffer solution, and its scan curve was identified by the spectrograph at a wavelength of from 200 to 400 nm. CT-DNA (40 ug/ml) and compounds to be tested (20 uM) were added into the PE buffer solution. The mixture was cultured at 37° C. for 2 h, and its scan curve was identified by the UV spectrograph at a wavelength of from 200 to 400 nm. […] After that, the OD value at 260 nm of the scan curve of the medicaments tested and that of the CT-DNA mixture OD value at 260 nm of the scan curve were calculated and compared to determine the influences of the medicaments tested on the UV absorption spectrum of the DNA molecules.

[3] = Solubility (physico-chemical data tables); settings: qualitative; Table 12, 3,9-disubstituted β-carboline derivatives
[4] = 50% male 50% female mice, 240 mg/kg
[5] = 50% male 50% female mice, 300 mg/kg
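For Death rate in this document: acute toxicity in Kunming mice grouped by sex, one intraperitoneal dose at five graded levels in Tween-80 plus 0.5% CMC-Na, deaths monitored over two weeks.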
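For LD50 in this document: acute toxicity in Kunming mice grouped by sex, one intraperitoneal dose at five graded levels in Tween-80 plus 0.5% CMC-Na, deaths monitored over two weeks.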
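For MTD in this document: acute toxicity in Kunming mice grouped by sex, one intraperitoneal dose at five graded levels in Tween-80 plus 0.5% CMC-Na, deaths monitored over two weeks.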

Q: What does the source list for `CCCCn1c2ccccc2c2cc(C(=O)O)ncc21` [Compound 36, 9-butyl-β-carboline-3-carboxylic acid]?
A: ΔTm (CT-DNA [1]; CT-DNA 15 ug/ml, PE buffer pH 7.6): −1.5 °C; ΔTm (CT-DNA [1]; CT-DNA thermal denaturation): −1.5 °C; Death rate (Kunming mice; [4]): 0; Death rate (Kunming mice; [5]): 30; Death rate (Kunming mice; female mice, 240 mg/kg): 0; Death rate (Kunming mice; female mice, 300 mg/kg): 40; Death rate (Kunming mice; male mice, 240 mg/kg): 0; Death rate (Kunming mice; male mice, 300 mg/kg): 20; Body weight of the animals, beginning, First time (S180 sarcoma; Dosage 50 (mg/ml)): 19.1 g; Body weight of the animals, end, First time (S180 sarcoma; Dosage 50 (mg/ml)): 24.9 g; Inhibition rate, First time (S180 sarcoma; Dosage 50 (mg/ml)): 29.96%; Weight of the tumor X ± SD, First time (S180 sarcoma; Dosage 50 (mg/ml)): 1.87 ± 0.16 g; Body weight of the animals, beginning, Second time (S180 sarcoma; Dosage 50 (mg/ml)): 18.3 g; Body weight of the animals, end, Second time (S180 sarcoma; Dosage 50 (mg/ml)): 25.3 g; Inhibition rate, Second time (S180 sarcoma; Dosage 50 (mg/ml)): 31.11%; Weight of the tumor X ± SD, Second time (S180 sarcoma; Dosage 50, ip × 10qd): 1.86 ± 0.28 g; Body weight of the animals, beginning, First time (S180 sarcoma; Dosage 100 (mg/ml)): 19.0 g; Body weight of the animals, end, First time (S180 sarcoma; Dosage 100 (mg/ml)): 24.5 g; Inhibition rate, First time (S180 sarcoma; Dosage 100 (mg/ml)): 43.07%; Weight of the tumor X ± SD, First time (S180 sarcoma; Dosage 100 (mg/ml)): 1.52 ± 0.15 g; Body weight of the animals, beginning, Second time (S180 sarcoma; Dosage 100 (mg/ml)): 18.7 g; Body weight of the animals, end, Second time (S180 sarcoma; Dosage 100 (mg/ml)): 25.5 g; Inhibition rate, Second time (S180 sarcoma; Dosage 100 (mg/ml)): 40.00%; Weight of the tumor X ± SD, Second time (S180 sarcoma; Dosage 100, ip × 10qd): 1.62 ± 0.12 g; Inhibition rate (%) S180 sarcomata (S180 sarcoma): 43.07%; IC50 (BGC-823): 120 µM; IC50 (PLA-801): 90 µM; IC50 (NIH3T3): 20 µM; IC50 (Hela): 60 µM; IC50 (HepG2): 170 µM; IC50 (Lovo): 10 µM; Body weight of the animals, end, First time (Lewis lung cancer; Dosage 50 (mg/ml)): 25.6 g; Body weight of the animals, end, Second time (Lewis lung cancer; Dosage 50 (mg/ml)): 25.3 g; Body weight of the animals, beginning, First time (Lewis lung cancer; Dosage 50, ip × 10qd): 18.8 g; Inhibition rate, First time (Lewis lung cancer; Dosage 50, ip × 10qd): 31.74%; Weight of the tumor X ± SD, First time (Lewis lung cancer; Dosage 50, ip × 10qd): 2.00 ± 0.28 g; Body weight of the animals, beginning, Second time (Lewis lung cancer; Dosage 50, ip × 10qd): 20.1 g; Inhibition rate, Second time (Lewis lung cancer; Dosage 50, ip × 10qd): 31.69%; Weight of the tumor X ± SD, Second time (Lewis lung cancer; Dosage 50, ip × 10qd): 1.66 ± 0.17 g; Body weight of the animals, end, First time (Lewis lung cancer; Dosage 100 (mg/ml)): 25.2 g; Body weight of the animals, end, Second time (Lewis lung cancer; Dosage 100 (mg/ml)): 25.0 g; Body weight of the animals, beginning, First time (Lewis lung cancer; Dosage 100, ip × 10qd): 19.3 g; Inhibition rate, First time (Lewis lung cancer; Dosage 100, ip × 10qd): 41.98%; Weight of the tumor X ± SD, First time (Lewis lung cancer; Dosage 100, ip × 10qd): 1.70 ± 0.17 g; Body weight of the animals, beginning, Second time (Lewis lung cancer; Dosage 100, ip × 10qd): 20.1 g; Inhibition rate, Second time (Lewis lung cancer; Dosage 100, ip × 10qd): 46.91%; Weight of the tumor X ± SD, Second time (Lewis lung cancer; Dosage 100, ip × 10qd): 1.29 ± 0.13 g; Inhibition rate (%) Lewis cancer (Lewis lung cancer): 46.91%; IC50 (Bel-7402): 90 µM; MTD at 2 weeks (in vivo): > 300 mg/kg; Influence on the UV absorption of DNA (CT-DNA [2]): increase the UV absorption of DNA

Q: What does the source list for `O=C(O)c1cc2c3ccccc3n(Cc3ccccc3)c2cn1` [Compound 37, 9-benzyl-β-carboline-3-carboxylic acid]?
A: Death rate (Kunming mice; [4]): 100; Death rate (Kunming mice; [5]): 100; Death rate (Kunming mice; female mice, 240 mg/kg): 100; Death rate (Kunming mice; female mice, 300 mg/kg): 100; Death rate (Kunming mice; male mice, 240 mg/kg): 100; Death rate (Kunming mice; male mice, 300 mg/kg): 100; LD50 (Kunming mice; mouse, in vivo, ip): 142 to 189 mg/kg; Body weight of the animals, beginning, First time (S180 sarcoma; Dosage 25 (mg/ml)): 19.6 g; Body weight of the animals, end, First time (S180 sarcoma; Dosage 25 (mg/ml)): 26.9 g; Inhibition rate, First time (S180 sarcoma; Dosage 25 (mg/ml)): 23.86%; Weight of the tumor X ± SD, First time (S180 sarcoma; Dosage 25 (mg/ml)): 2.17 ± 0.18 g; Body weight of the animals, beginning, Second time (S180 sarcoma; Dosage 25 (mg/ml)): 20.4 g; Body weight of the animals, end, Second time (S180 sarcoma; Dosage 25 (mg/ml)): 25.1 g; Inhibition rate, Second time (S180 sarcoma; Dosage 25 (mg/ml)): 24.21%; Weight of the tumor X ± SD, Second time (S180 sarcoma; Dosage 25, ip × 10qd): 2.16 ± 0.27 g; Body weight of the animals, beginning, First time (S180 sarcoma; Dosage 50 (mg/ml)): 19.7 g; Body weight of the animals, end, First time (S180 sarcoma; Dosage 50 (mg/ml)): 26.3 g; Inhibition rate, First time (S180 sarcoma; Dosage 50 (mg/ml)): 34.39%; Weight of the tumor X ± SD, First time (S180 sarcoma; Dosage 50 (mg/ml)): 1.87 ± 0.13 g; Body weight of the animals, beginning, Second time (S180 sarcoma; Dosage 50 (mg/ml)): 20.6 g; Body weight of the animals, end, Second time (S180 sarcoma; Dosage 50 (mg/ml)): 24.7 g; Inhibition rate, Second time (S180 sarcoma; Dosage 50 (mg/ml)): 32.98%; Weight of the tumor X ± SD, Second time (S180 sarcoma; Dosage 50, ip × 10qd): 1.91 ± 0.23 g; Inhibition rate (%) S180 sarcomata (S180 sarcoma): 34.39%; IC50 (BGC-823): 50 µM; IC50 (PLA-801): 100 µM; IC50 (NIH3T3): 50 µM; IC50 (Hela): 90 µM; Solubility [3]: soluble in DMSO; IC50 (HepG2): 100 µM; IC50 (Lovo): 40 µM; Body weight of the animals, end, First time (Lewis lung cancer; Dosage 25 (mg/ml)): 24.1 g; Body weight of the animals, end, Second time (Lewis lung cancer; Dosage 25 (mg/ml)): 24.9 g; Body weight of the animals, beginning, First time (Lewis lung cancer; Dosage 25, ip × 10qd): 18.6 g; Inhibition rate, First time (Lewis lung cancer; Dosage 25, ip × 10qd): 27.09%; Weight of the tumor X ± SD, First time (Lewis lung cancer; Dosage 25, ip × 10qd): 1.83 ± 0.17 g; Body weight of the animals, beginning, Second time (Lewis lung cancer; Dosage 25, ip × 10qd): 19.6 g; Inhibition rate, Second time (Lewis lung cancer; Dosage 25, ip × 10qd): 29.24%; Weight of the tumor X ± SD, Second time (Lewis lung cancer; Dosage 25, ip × 10qd): 1.67 ± 0.16 g; Body weight of the animals, end, First time (Lewis lung cancer; Dosage 50 (mg/ml)): 23.9 g; Body weight of the animals, end, Second time (Lewis lung cancer; Dosage 50 (mg/ml)): 24.3 g; Body weight of the animals, beginning, First time (Lewis lung cancer; Dosage 50, ip × 10qd): 18.9 g; Inhibition rate, First time (Lewis lung cancer; Dosage 50, ip × 10qd): 39.04%; Weight of the tumor X ± SD, First time (Lewis lung cancer; Dosage 50, ip × 10qd): 1.53 ± 0.14 g; Body weight of the animals, beginning, Second time (Lewis lung cancer; Dosage 50, ip × 10qd): 19.5 g; Inhibition rate, Second time (Lewis lung cancer; Dosage 50, ip × 10qd): 43.22%; Weight of the tumor X ± SD, Second time (Lewis lung cancer; Dosage 50, ip × 10qd): 1.34 ± 0.14 g; Inhibition rate (%) Lewis cancer (Lewis lung cancer): 43.22%; IC50 (Bel-7402): 110 µM; LD50 at 2 weeks (in vivo; Kunming): 163 mg/kg; Influence on the UV absorption of DNA (CT-DNA [2]): increase the UV absorption of DNA
